Results as given in PubChem BioAssay (NCI).
Several values for one entry are separate records, joined by “and”; a condition that tells them apart may be missing. Equal entries are not always repeated.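 96-well plates; 48 h exposure; 5 concentrations. Endpoints by linear interpolation between flanking doses. Not reached: highest tested concentration assigned. Here, GI50 denotes the concentration required for 50% inhibition of growth. The concentration for full growth arrest is given as TGI.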

Columns and labels:
Experiment in all cases: NCI tumour cell line growth inhibition, 48 h
LOX IMVI melanoma = system: LOX IMVI melanoma
UACC-257 melanoma = system: UACC-257 melanoma
RPMI-8226 leukemia = system: RPMI-8226 leukemia
OVCAR-8 ovarian = system: OVCAR-8 ovarian
NCI-H23 lung = system: NCI-H23 lung
KM12 colon = system: KM12 colon
MDA-MB-435 = system: MDA-MB-435
MCF7 breast = system: MCF7 breast
NCI/ADR-RES ovarian = system: NCI/ADR-RES ovarian
T-47D breast = system: T-47D breast

Row | SMILES | TGI (LOX IMVI melanoma) | TGI (UACC-257 melanoma) [µM] | TGI (RPMI-8226 leukemia) [µM] | TGI (OVCAR-8 ovarian) [µM] | TGI (NCI-H23 lung) [µM] | TGI (KM12 colon) [µM] | GI50 (LOX IMVI melanoma) [µM] | GI50 (MDA-MB-435) [µM] | TGI (MDA-MB-435) [µM] | GI50 (MCF7 breast) [µM] | TGI (MCF7 breast) [µM] | GI50 (NCI-H23 lung) [µM] | TGI (NCI/ADR-RES ovarian) [µM] | GI50 (UACC-257 melanoma) [µM] | GI50 (RPMI-8226 leukemia) [µM] | GI50 (OVCAR-8 ovarian) [µM] | GI50 (KM12 colon) [µM] | GI50 (NCI/ADR-RES ovarian) [µM] | GI50 (T-47D breast) [µM] | TGI (T-47D breast) [µM]
1 | c1ccc2c(c1)CCC/C2=N\OCC1CO1 (configuration not stated) | > 100 µM | > 100 | > 100 | > 100 | > 100 | > 100 | – | – | – | – | – | – | – | – | – | – | – | – | – | –
2 | CC/C(C)=C1\CCC(CN2CCOCC2)C1=O (configuration not stated) | 30.5 µM | 31.5 | 15.9 | 50.6 | 30.6 | > 100 | – | – | – | – | – | – | – | – | – | – | – | – | – | –
3 | COC(=O)C1C(C(=O)OC)C2(OC)c3ccccc3-c3ccccc3C12 (configuration not stated) | > 100 µM | > 100 | 71.8 | > 100 | > 100 | > 100 | – | – | – | – | – | – | – | – | – | – | – | – | – | –
4 | O=C1OC(CC(=O)c2ccc(Cl)c(Cl)c2)C(Cl)=C1Cl (configuration not stated) | > 100 µM | > 100 | > 100 | > 100 | > 100 | > 100 | – | – | – | – | – | – | – | – | – | – | – | – | – | –
5 | CCN(CC)CC(O)CNc1ccc(NCC2CO2)c2c1C(=O)c1ccccc1C2=O (configuration not stated) | 0.0392 µM and 0.0576 µM | 4.04 | 5.35 | 1.32 | 5.2 | 1.74 | 0.00454 | 0.133 | 0.394 | 0.0284 | 0.169 | 0.26 | 0.815 | – | – | – | – | – | – | –
6 | CC(=O)c1cccc(N2COC(C)(C)c3nc4ccccc4n3C2)c1 | > 100 µM | > 100 | > 100 | > 100 | > 100 | > 100 | – | – | – | – | – | – | – | – | – | – | – | – | – | –
7 | O=[N+]([O-])c1cccc(C2N3CCCCC3[C@@H]3c4[nH]c5ccccc5c4CCN23)c1 (some centres not stated) | – | 27 | > 100 | > 100 | 25.3 | – | – | – | – | – | – | – | – | – | – | – | – | – | – | –
8 | O=[N+]([O-])c1cc(Cl)c(Cl)c([N+](=O)[O-])c1Cl | 1.11 µM | 3.08 | 2.61 | 2.97 | – | 2.97 | 0.299 | 1.7 | 3.46 | 1.14 | 3.42 | – | 3.75 | 1.56 | 0.422 | 1.34 | 1.44 | 1.91 | – | –
9 | CCOC(=O)NC(=O)c1cn(CC(=O)NCC(=O)NCC(=O)NCCCN2CCN(CCCNC(=O)CNC(=O)CNC(=O)Cn3cc(C(=O)NC(=O)OCC)c(=O)[nH]c3=O)CC2)c(=O)[nH]c1=O | > 100 µM | > 100 | – | > 100 | > 100 | > 100 | – | – | – | – | – | – | – | – | – | – | – | – | – | –
10 | CN[C@@H](C)C(=O)N[C@H](C(=O)N1CCC[C@H]1C(=O)N[C@H]1c2ccccc2C[C@H]1OCC#CC#CCO[C@@H]1Cc2ccccc2[C@@H]1NC(=O)[C@@H]1CCCN1C(=O)[C@@H](NC(=O)[C@H](C)NC)C1CCCCC1)C1CCCCC1 | 3.38 µM | 28.8 | 3.9 | 8.31 | 6.98 | 7.96 | 1.7 | – | – | 1.47 | 3.23 | 0.796 | > 100 | 13.5 | 1.44 | 0.452 | 2.66 | 12 | 1.81 | 4.39
11 | O=S(=O)(N/N=C/c1ccc(/C=N/NS(=O)(=O)c2ccccc2)cc1)c1ccccc1 | 51 µM | > 100 | > 100 | > 100 | 66.8 | > 100 | – | – | – | – | – | – | – | – | – | – | – | – | – | –
12 | CC[C@@H]1OC2(C)CC(S(=O)(=O)c3ccccc3O)CC1O2 (some centres not stated) | – | > 100 | > 100 | > 100 | > 100 | > 100 | – | – | – | – | – | – | – | – | – | – | – | – | – | –
13 | CCOC(=O)C(N)C[S][Sn]([CH3])([CH3])[Cl] (configuration not stated) | > 100 µM | > 100 | > 100 | > 100 | > 100 | > 100 | 37 | – | – | – | – | > 100 | – | > 100 | > 84.9 | > 100 | > 100 | – | – | –
14 | NNC(=O)/C(=C/c1ccc(Cl)c(Cl)c1)NC(=O)c1ccccc1 | > 100 µM | > 100 | > 100 | > 100 | > 100 | > 100 | – | – | – | – | – | – | – | – | – | – | – | – | – | –
15 | CC(=O)OCC1OC(N2C(=O)C(=O)c3cc(C)ccc32)C(OC(C)=O)C(OC(C)=O)C1OC(C)=O (configuration not stated) | 34.3 µM | > 100 | 70.1 | > 100 | > 100 | > 100 | – | – | – | – | – | – | – | – | – | – | – | – | – | –
16 | O=C1c2ccccc2-c2cccc3ccc(Cc4ccc5ccccc5c4)c1c23 | – | > 100 | > 100 | > 100 | > 100 | > 100 | – | – | – | – | – | – | – | – | – | – | – | – | – | –
17 | COc1cc(OC)c(/C=C/S(=O)(=O)Cc2cnc(OC)c(N)c2)c(OC)c1 | > 100 µM | > 100 | > 100 | > 100 | > 100 | > 100 | < 0.0233 | – | – | < 0.0155 | > 100 | < 0.0262 | > 100 | > 62 | < 0.0206 | < 0.024 | < 0.0157 | < 0.01 | – | –
